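How tested: cells in 96-well plates exposed to compound for 48 hours at five concentrations. Here, GI50 denotes the concentration required for 50% inhibition of growth.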 Active and inactive are the calls of the source. Rule as the data show it: active = GI50 up to about 1.1 µM and inactive = higher.
Columns and labels:
Assay in all cases: NCI tumour cell line growth inhibition, 48 h
SNB-78 = system: SNB-78
DMS-114 = system: DMS-114
SK-OV-3 = system: SK-OV-3
KM12 = system: KM12
OVCAR-4 = system: OVCAR-4
K562 = system: K562
SN12C = system: SN12C
HCT-116 = system: HCT-116
OVCAR-8 = system: OVCAR-8
RXF 631 = system: RXF 631
NCI-H23 = system: NCI-H23
NCI-H522 = system: NCI-H522
SK-MEL-28 = system: SK-MEL-28
RXF 393 = system: RXF 393
NCI-H226 = system: NCI-H226
HOP-62 = system: HOP-62
LXFL 529 = system: LXFL 529
SF-539 = system: SF-539
HCC 2998 = system: HCC 2998
HCT-15 = system: HCT-15
HOP-92 = system: HOP-92
U-251 = system: U-251
KM-20L2 = system: KM-20L2
ACHN = system: ACHN
UACC-62 = system: UACC-62
SW-620 = system: SW-620
IGROV-1 = system: IGROV-1
HL-60 = system: HL-60
SK-MEL-5 = system: SK-MEL-5
A498 = system: A498
SNB-75 = system: SNB-75
NCI-H460 = system: NCI-H460
SF-268 = system: SF-268
TK-10 = system: TK-10
CAKI-1 = system: CAKI-1
A549 = system: A549
UO-31 = system: UO-31
OVCAR-5 = system: OVCAR-5
DLD-1 = system: DLD-1
RPMI-8226 = system: RPMI-8226
HOP-18 = system: HOP-18
SNB-19 = system: SNB-19
Malme-3M = system: Malme-3M
MOLT-4 = system: MOLT-4
SR = system: SR
LOX IMVI = system: LOX IMVI
M14 = system: M14
SK-MEL-2 = system: SK-MEL-2
DMS-273 = system: DMS-273
COLO 205 = system: COLO 205
M19-MEL = system: M19-MEL
SF-295 = system: SF-295
OVCAR-3 = system: OVCAR-3
HT-29 = system: HT-29
UACC-257 = system: UACC-257
CCRF-CEM = system: CCRF-CEM
EKVX = system: EKVX
786-0 = system: 786-0

`NC1=NN(c2ccccc2)C(=O)C1C(=O)C(=O)Nc1nccs1` (centres undefined) was tested, and the GI50 (SNB-78) was > 100 µM (inactive), the GI50 (DMS-114) was > 100 µM (inactive) and the GI50 (SK-OV-3) was > 100 µM (inactive). The GI50 (KM12) was > 100 µM (inactive), the GI50 (OVCAR-4) was > 100 µM (inactive) and the GI50 (K562) was > 100 µM (inactive). The GI50 (SN12C) was > 100 µM (inactive), the GI50 (HCT-116) was > 100 µM (inactive) and the GI50 (OVCAR-8) was > 100 µM (inactive). The GI50 (RXF 631) was > 100 µM (inactive), the GI50 (NCI-H23) was > 100 µM (inactive) and the GI50 (NCI-H522) was > 100 µM (inactive). The GI50 (SK-MEL-28) was > 100 µM (inactive), the GI50 (RXF 393) was > 100 µM (inactive) and the GI50 (NCI-H226) was > 100 µM (inactive). The GI50 (HOP-62) was > 100 µM (inactive), the GI50 (LXFL 529) was > 100 µM (inactive) and the GI50 (SF-539) was > 100 µM (inactive). For the same compound, the GI50 (HCC 2998) was > 100 µM (inactive), the GI50 (HCT-15) was over 100 µM and the GI50 (HOP-92) was > 100 µM (inactive). For the same compound, the GI50 (U-251) was > 100 µM (inactive), the GI50 (KM-20L2) was > 100 µM (inactive) and the GI50 (ACHN) was > 100 µM (inactive). The GI50 (UACC-62) was > 100 µM (inactive), the GI50 (SW-620) was > 100 µM (inactive) and the GI50 (IGROV-1) was > 100 µM (inactive). For the same compound, the GI50 (HL-60) was > 100 µM (inactive), the GI50 (SK-MEL-5) was > 100 µM (inactive) and the GI50 (A498) was > 100 µM (inactive). For the same compound, the GI50 (SNB-75) was 62.1 µM (inactive), the GI50 (NCI-H460) was > 100 µM (inactive) and the GI50 (SF-268) was > 100 µM (inactive). The GI50 (TK-10) was > 100 µM (inactive), the GI50 (CAKI-1) was > 100 µM (inactive) and the GI50 (A549) was > 100 µM (inactive). For the same compound, the GI50 (UO-31) was > 100 µM (inactive), the GI50 (OVCAR-5) was > 100 µM (inactive) and the GI50 (DLD-1) was > 100 µM (inactive). The GI50 (RPMI-8226) was > 100 µM (inactive), the GI50 (HOP-18) was > 100 µM (inactive) and the GI50 (SNB-19) was > 100 µM (inactive). The GI50 (Malme-3M) was > 100 µM (inactive), the GI50 (MOLT-4) was > 100 µM (inactive) and the GI50 (SR) was > 100 µM (inactive). The GI50 (LOX IMVI) was > 100 µM (inactive), the GI50 (M14) was > 100 µM (inactive) and the GI50 (SK-MEL-2) was > 100 µM (inactive). For the same compound, the GI50 (DMS-273) was > 100 µM (inactive), the GI50 (COLO 205) was > 100 µM (inactive) and the GI50 (M19-MEL) was > 100 µM (inactive). The GI50 (SF-295) was > 100 µM (inactive), the GI50 (OVCAR-3) was > 100 µM (inactive) and the GI50 (HT-29) was > 100 µM (inactive). The GI50 (UACC-257) was > 100 µM (inactive), the GI50 (CCRF-CEM) was > 100 µM (inactive) and the GI50 (EKVX) was > 100 µM (inactive). The GI50 (786-0) was > 100 µM (inactive).

With `N#CCC(=O)N/N=C1/C(=O)NC(=O)C(=O)C1c1nc2ccccc2s1` (centres undefined) the GI50 (SNB-78) was > 100 µM (inactive), the GI50 (DMS-114) was > 100 µM (inactive) and the GI50 (SK-OV-3) was > 100 µM (inactive). The GI50 (OVCAR-4) was > 100 µM (inactive), the GI50 (K562) was > 100 µM (inactive) and the GI50 (SN12C) was > 100 µM (inactive). The GI50 (HCT-116) was > 100 µM (inactive), the GI50 (OVCAR-8) was > 100 µM (inactive) and the GI50 (RXF 631) was > 100 µM (inactive). For the same compound, the GI50 (NCI-H23) was > 100 µM (inactive), the GI50 (NCI-H522) was > 100 µM (inactive) and the GI50 (SK-MEL-28) was > 100 µM (inactive). For the same compound, the GI50 (RXF 393) was > 100 µM (inactive), the GI50 (NCI-H226) was 50.1 µM (inactive) and the GI50 (HOP-62) was > 100 µM (inactive). For the same compound, the GI50 (LXFL 529) was > 100 µM (inactive), the GI50 (SF-539) was > 100 µM (inactive) and the GI50 (HCC 2998) was > 100 µM (inactive). For the same compound, the GI50 (HCT-15) was over 100 µM, the GI50 (HOP-92) was 67.5 µM (inactive) and the GI50 (U-251) was > 100 µM (inactive). The GI50 (KM-20L2) was > 100 µM (inactive), the GI50 (ACHN) was > 100 µM (inactive) and the GI50 (UACC-62) was > 100 µM (inactive). The GI50 (SW-620) was > 100 µM (inactive), the GI50 (IGROV-1) was > 100 µM (inactive) and the GI50 (SK-MEL-5) was > 100 µM (inactive). For the same compound, the GI50 (A498) was > 100 µM (inactive), the GI50 (SNB-75) was > 100 µM (inactive) and the GI50 (SF-268) was > 100 µM (inactive). For the same compound, the GI50 (TK-10) was > 100 µM (inactive), the GI50 (CAKI-1) was > 100 µM (inactive) and the GI50 (A549) was > 100 µM (inactive). For the same compound, the GI50 (UO-31) was > 100 µM (inactive), the GI50 (OVCAR-5) was > 100 µM (inactive) and the GI50 (DLD-1) was > 100 µM (inactive). For the same compound, the GI50 (RPMI-8226) was > 100 µM (inactive), the GI50 (HOP-18) was > 100 µM (inactive) and the GI50 (SNB-19) was > 100 µM (inactive). For the same compound, the GI50 (Malme-3M) was > 100 µM (inactive), the GI50 (MOLT-4) was > 100 µM (inactive) and the GI50 (SR) was 71.8 µM (inactive). The GI50 (LOX IMVI) was > 100 µM (inactive), the GI50 (M14) was > 100 µM (inactive) and the GI50 (SK-MEL-2) was > 100 µM (inactive). The GI50 (DMS-273) was > 100 µM (inactive), the GI50 (COLO 205) was > 100 µM (inactive) and the GI50 (M19-MEL) was > 100 µM (inactive). For the same compound, the GI50 (SF-295) was > 100 µM (inactive), the GI50 (OVCAR-3) was > 100 µM (inactive) and the GI50 (HT-29) was > 100 µM (inactive). For the same compound, the GI50 (UACC-257) was > 100 µM (inactive), the GI50 (CCRF-CEM) was > 100 µM (inactive) and the GI50 (EKVX) was > 100 µM (inactive). For the same compound, the GI50 (786-0) was > 100 µM (inactive).

With `N/N=C1\C(=O)N(c2ccc(Cl)cc2Cl)C(=O)C(=O)C1c1nc2ccccc2o1` (centres undefined) the GI50 (SNB-78) was > 100 µM (inactive), the GI50 (DMS-114) was > 100 µM (inactive) and the GI50 (SK-OV-3) was > 100 µM (inactive). For the same compound, the GI50 (KM12) was > 100 µM (inactive), the GI50 (OVCAR-4) was > 100 µM (inactive) and the GI50 (K562) was > 100 µM (inactive). The GI50 (SN12C) was > 100 µM (inactive), the GI50 (HCT-116) was > 100 µM (inactive) and the GI50 (OVCAR-8) was > 100 µM (inactive). The GI50 (RXF 631) was > 100 µM (inactive), the GI50 (NCI-H23) was > 100 µM (inactive) and the GI50 (NCI-H522) was > 100 µM (inactive). For the same compound, the GI50 (SK-MEL-28) was > 100 µM (inactive), the GI50 (NCI-H226) was > 100 µM (inactive) and the GI50 (HOP-62) was > 100 µM (inactive). The GI50 (LXFL 529) was > 100 µM (inactive), the GI50 (SF-539) was > 100 µM (inactive) and the GI50 (HCC 2998) was > 100 µM (inactive). The GI50 (HCT-15) was over 100 µM, the GI50 (HOP-92) was > 100 µM (inactive) and the GI50 (U-251) was > 100 µM (inactive). For the same compound, the GI50 (KM-20L2) was > 100 µM (inactive), the GI50 (ACHN) was > 100 µM (inactive) and the GI50 (UACC-62) was 11.4 µM (inactive). The GI50 (SW-620) was > 100 µM (inactive), the GI50 (IGROV-1) was > 100 µM (inactive) and the GI50 (HL-60) was > 100 µM (inactive). The GI50 (SK-MEL-5) was > 100 µM (inactive), the GI50 (A498) was > 100 µM (inactive) and the GI50 (SNB-75) was > 100 µM (inactive). For the same compound, the GI50 (NCI-H460) was > 100 µM (inactive), the GI50 (SF-268) was > 100 µM (inactive) and the GI50 (TK-10) was > 100 µM (inactive). The GI50 (CAKI-1) was > 100 µM (inactive), the GI50 (A549) was > 100 µM (inactive) and the GI50 (UO-31) was 48.3 µM (inactive). The GI50 (OVCAR-5) was > 100 µM (inactive), the GI50 (DLD-1) was > 100 µM (inactive) and the GI50 (RPMI-8226) was > 100 µM (inactive). For the same compound, the GI50 (HOP-18) was > 100 µM (inactive), the GI50 (SNB-19) was > 100 µM (inactive) and the GI50 (Malme-3M) was > 100 µM (inactive). The GI50 (MOLT-4) was > 100 µM (inactive), the GI50 (LOX IMVI) was 97.7 µM (inactive) and the GI50 (M14) was > 100 µM (inactive). For the same compound, the GI50 (SK-MEL-2) was 95.7 µM (inactive), the GI50 (DMS-273) was > 100 µM (inactive) and the GI50 (COLO 205) was > 100 µM (inactive). The GI50 (M19-MEL) was > 100 µM (inactive), the GI50 (SF-295) was > 100 µM (inactive) and the GI50 (OVCAR-3) was > 100 µM (inactive). The GI50 (HT-29) was > 100 µM (inactive), the GI50 (UACC-257) was > 100 µM (inactive) and the GI50 (CCRF-CEM) was 57.5 µM (inactive). The GI50 (EKVX) was > 100 µM (inactive) and the GI50 (786-0) was > 100 µM (inactive).

Reference: ChEMBL document CHEMBL1201862, “PubChem BioAssay data set” (2004)
